Assay results: patent publication US8518952B2, “6 substituted 2-heterocyclylamino pyrazine compounds as CHK-1 inhibitors” (Pfizer Inc., priority 2008, dated 2013)
Where two headings read alike, the source gives them in different places.

Tests used:
CHK1 (kinase domain) = molecular target: T1, CHK1 (kinase domain) (Homo sapiens, UniProt O14757); assay: CHK1 Ki determination, spectrophotometric coupled (pyruvate kinase/lactate dehydrogenase) assay; assay type: biochemical; settings: CHK-1 kinase domain; for percent inhibition (where no Ki data is available): inhibitor concentration not given; for Ki: 150 uM ATP, 125 uM Syntide 2
T1 construct: a solution containing 1 nM of CHK1 (kinase domain)
T1 sequence (O14757 9-265 limits assumed): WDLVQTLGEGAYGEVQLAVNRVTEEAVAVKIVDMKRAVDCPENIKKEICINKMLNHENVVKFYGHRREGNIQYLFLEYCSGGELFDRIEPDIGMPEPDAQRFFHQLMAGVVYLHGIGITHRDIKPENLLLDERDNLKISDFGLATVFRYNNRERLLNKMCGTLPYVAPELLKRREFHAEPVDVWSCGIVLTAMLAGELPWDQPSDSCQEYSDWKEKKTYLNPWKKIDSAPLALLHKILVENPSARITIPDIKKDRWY
Procedure, shortened: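 Ki values, or % inhibition where no Ki was obtained, come from a tight-binding fit that uses active enzyme concentration and the ATP Km. Rates were followed as NADH loss at 340 nm, with ADP production coupled via pyruvate kinase and lactate dehydrogenase. Reactions with ATP (150 uM) and Syntide 2 (125 uM) were started after the CHK1 kinase domain had stood with inhibitor for 15 min.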

HeLa cells = assay: Histone H3 (Ser10) phosphorylation ELISA, abrogation of camptothecin-induced G2 arrest (CHK-1 cellular assay); assay type: cell-based; settings: HeLa cells, camptothecin 8 hrs, then compound with nocodozole 16 hours, read-out: EC50
Procedure, shortened: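 HeLa cells, or MiaPaCa-2 where marked, received camptothecin for 8 h, then compound with nocodazole for 16 h. Ser10-phosphorylated histone H3 in lysates was measured by ELISA with a biotinylated antibody, streptavidin-HRP and TMB. EC50 came from four-parameter sigmoid fits.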

| SMILES | percent inhibition (where no Ki data is available) (CHK1 (kinase domain)) [%^] | EC50 (HeLa cells) [nM] | Ki (CHK1 (kinase domain)) [nM] | EC50 (HeLa cells; Homo sapiens, HeLa) [nM] |
| --- | --- | --- | --- | --- |
| CC(C)c1cn2c(-c3cncc(N[C@@H]4CCCN[C@H]4C)n3)cnc2s1 [Example 169, N-[(2S,3R)-2-methylpiperidin-3-yl]-6-[2-(propan-2-yl)imidazo[2,1-b][1,3]thiazol-5-yl]pyrazin-2-amine] | 45.9 | 1850 |  |  |
| CCc1cn2c(-c3cncc(N[C@@H]4CCCN[C@H]4C)n3)cnc2s1 [Example 170, 6-(2-ethylimidazo[2,1-b][1,3]thiazol-5-yl)-N-[(2S,3R)-2-methylpiperidin-3-yl]pyrazin-2-amine] |  | 414 | 11.1 |  |
| C[C@H]1NCCC[C@@H]1Nc1cncc(-c2cnc3cnccn23)n1 [Example 171, 6-(imidazo[1,2-a]pyrazin-3-yl)-N-[(2R,3S)-2-methylpiperidin-3-yl]pyrazin-2-amine] | 21.7 |  |  | ≥ 10000 |
| C[C@H]1NCCC[C@@H]1Nc1cncc(-c2cnc3ccc(F)cn23)n1 [Example 172, 6-(6-fluoroimidazo[1,2-a]pyridin-3-yl)-N-[(2R,3S)-2-methylpiperidin-3-yl]pyrazin-2-amine] |  |  | 178 | ≥ 10000 |
| CC(C)c1cn2c(-c3cncc(N[C@H]4CCCN[C@@H]4C)n3)cnc2s1 [Example 173, N-[(2R,3S)-2-methylpiperidin-3-yl]-6-[2-(propan-2-yl)imidazo[2,1-b][1,3]thiazol-5-yl]pyrazin-2-amine] |  |  | 23.7 | ≥ 10000 |
| CCc1cn2c(-c3cncc(N[C@H]4CCCN[C@@H]4C)n3)cnc2s1 [Example 174, 6-(2-ethylimidazo[2,1-b][1,3]thiazol-5-yl)-N-[(2R,3S)-2-methylpiperidin-3-yl]pyrazin-2-amine] |  |  | 16.9 | ≥ 10000 |
| Cc1cn2c(-c3cncc(N[C@H]4CCCN[C@H]4C)n3)cnc2s1 [Example 175, 6-(2-methylimidazo[2,1-b][1,3]thiazol-5-yl)-N-[(2S,3S)-2-methylpiperidin-3-yl]pyrazin-2-amine] |  |  | 13.7 | 197 |
| Cc1cn2c(-c3cncc(N[C@@H]4CCCN[C@H]4C)n3)cnc2s1 [Example 176, 6-(2-methylimidazo[2,1-b][1,3]thiazol-5-yl)-N-[(2S,3R)-2-methylpiperidin-3-yl]pyrazin-2-amine] |  | 11.2 | 9.54 |  |
| Cc1cn2c(-c3cncc(N[C@H]4CN[C@H](C)C4)n3)cnc2s1 [Example 178, 6-(2-methylimidazo[2,1-b][1,3]thiazol-5-yl)-N-[(3R,5R)-5-methylpyrrolidin-3-yl]pyrazin-2-amine] |  |  | 2.01 | 31.2 |
| C[C@@H]1NCCC[C@@H]1Nc1cncc(-c2cnc3sccn23)n1 [Example 179, 6-(imidazo[2,1-b][1,3]thiazol-5-yl)-N-[(2S,3S)-2-methylpiperidin-3-yl]pyrazin-2-amine] | 29.1 |  |  | 294 |
| C[C@H]1NCCC[C@H]1Nc1cncc(-c2cnc3sccn23)n1 [Example 180, 6-(imidazo[2,1-b][1,3]thiazol-5-yl)-N-[(2R,3R)-2-methylpiperidin-3-yl]pyrazin-2-amine] |  |  | 1.5 | ≥ 10000 |
| Cc1cn2c(-c3cncc(N[C@H]4CNC[C@H]4CF)n3)cnc2s1 [Example 183, N-[(3R,4R)-4-(fluoromethyl)pyrrolidin-3-yl]-6-(2-methylimidazo[2,1-b][1,3]thiazol-5-yl)pyrazin-2-amine] |  |  | 5.4 | 53 |
| CC(C)c1cn2c(-c3cncc(N[C@H]4CNC[C@H]4CF)n3)cnc2s1 [Example 184, N-[(3R,4R)-4-(fluoromethyl)pyrrolidin-3-yl]-6-[2-(propan-2-yl)imidazo[2,1-b][1,3]thiazol-5-yl]pyrazin-2-amine] | 109 |  |  | 66.4 |
| CCc1cn2c(-c3cncc(N[C@H]4CNC[C@H]4CF)n3)cnc2s1 [Example 185, 6-(2-ethylimidazo[2,1-b][1,3]thiazol-5-yl)-N-[(3R,4R)-4-(fluoromethyl)pyrrolidin-3-yl]pyrazin-2-amine] |  |  | 5.4 | 66.4 |
| N#Cc1ccn2c(-c3cncc(N[C@@H]4CCNC4)n3)cnc2c1 [Example 186, 3-{6-[(3R)-pyrrolidin-3-ylamino]pyrazin-2-yl}imidazo[1,2-a]pyridine-7-carbonitrile] |  |  | 24 | 664 |
| CO[C@@H]1CNC[C@@H]1Nc1cncc(-c2cnc3ccccn23)n1 [Example 190, 6-(imidazo[1,2-a]pyridin-3-yl)-N-[(3S,4R)-4-methoxypyrrolidin-3-yl]pyrazin-2-amine] |  |  | 156 | 1320 |

| SMILES | percent inhibition (where no Ki data is available) (CHK1 (kinase domain)) [%^] | EC50 (HeLa cells) [nM] | Ki (CHK1 (kinase domain)) [nM] | EC50 (HeLa cells; Homo sapiens, HeLa) [nM] |
| --- | --- | --- | --- | --- |
| C[C@@H]1CNC[C@@H]1Nc1cncc(-c2cnc3cc(C(N)=O)ccn23)n1 [Example 191, 3-(6-{[(3R,4R)-4-methylpyrrolidin-3-yl]amino}pyrazin-2-yl)imidazo[1,2-a]pyridine-7-carboxamide] |  |  | 4.7 | 5070 |
| CCOC[C@@H]1C[C@@H](Nc2cncc(-c3cnc4ccccn34)n2)CN1 [Example 193, N-[(3R,5S)-5-(ethoxymethyl)pyrrolidin-3-yl]-6-(imidazo[1,2-a]pyridin-3-yl)pyrazin-2-amine] |  |  | 26.5 | 102 |
| CC(C)[C@@H]1CNC[C@@H]1Nc1cncc(-c2cnc3ccccn23)n1 [Example 194, 6-(imidazo[1,2-a]pyridin-3-yl)-N-[(3R,4R)-4-(propan-2-yl)pyrrolidin-3-yl]pyrazin-2-amine] |  |  | 13.6 | 7.76 |
| FC(F)(F)CO[C@@H]1CNC[C@@H]1Nc1cncc(-c2cnc3ccccn23)n1 [Example 195, 6-(imidazo[1,2-a]pyridin-3-yl)-N-[(3S,4R)-4-(2,2,2-trifluoroethoxy)pyrrolidin-3-yl]pyrazin-2-amine] |  |  | 73.4 | 78.5 |
| CC[C@@H]1CNC[C@@H]1Nc1cncc(-c2cnc3ccccn23)n1 [Example 196, N-[(3R,4R)-4-ethylpyrrolidin-3-yl]-6-(imidazo[1,2-a]pyridin-3-yl)pyrazin-2-amine] |  |  | 32 | 16.8 |
| Fc1ccc2c(-c3cncc(N[C@@H]4CCCNC4)n3)cnn2c1 [Example 198, 6-(6-fluoropyrazolo[1,5-a]pyridin-3-yl)-N-[(3R)-piperidin-3-yl]pyrazin-2-amine] |  |  | 1.09 | 23.4 |
| OC[C@@H]1CNC[C@@H]1Nc1cncc(-c2cnn3cc(Cl)ccc23)n1 [Example 201, [(3R,4R)-4-{[6-(6-chloropyrazolo[1,5-a]pyridin-3-yl)pyrazin-2-yl]amino}pyrrolidin-3-yl]methanol] |  |  | 4.88 | 48.9 |
| C[C@@H]1CNC[C@@H]1Nc1cncc(-c2cnn3cc(F)ccc23)n1 [Example 202, 6-(6-fluoropyrazolo[1,5-a]pyridin-3-yl)-N-[(3R,4R)-4-methylpyrrolidin-3-yl]pyrazin-2-amine] |  |  | 18.4 | 19.4 |
| C[C@@H]1CNC[C@@H]1Nc1cncc(-c2cnc3cc(-c4cnn(C)c4)ccn23)n1 [Example 209, 6-[7-(1-methyl-1H-pyrazol-4-yl)imidazo[1,2-a]pyridin-3-yl]-N-[(3R,4R)-4-methylpyrrolidin-3-yl]pyrazin-2-amine] |  |  | 1.3 | 123 |
| CC(C)OCCOc1ccn2c(-c3cncc(N[C@@H]4CCNC4)n3)cnc2c1 [Example 213, 6-{7-[2-(propan-2-yloxy)ethoxy]imidazo[1,2-a]pyridin-3-yl}-N-[(3R)-pyrrolidin-3-yl]pyrazin-2-amine] |  |  | 3.58 | ≥ 10000 |
| CC(C)Oc1ccc2c(c1)ncn2-c1cncc(N[C@@H]2CCCNC2)n1 [Example 215, N-[(3R)-piperidin-3-yl]-6-[5-(propan-2-yloxy)-1H-benzimidazol-1-yl]pyrazin-2-amine] |  |  | 6.78 | 35.8 |
| COc1ccc2ncn(-c3cncc(N[C@@H]4CCNC4)n3)c2c1 [Example 216, 6-(6-methoxy-1H-benzimidazol-1-yl)-N-[(3R)-pyrrolidin-3-yl]pyrazin-2-amine] |  |  | 15.5 | 35.8 |
| COc1ccc2c(c1)ncn2-c1cncc(N[C@@H]2CCNC2)n1 [Example 218, 6-(5-methoxy-1H-benzimidazol-1-yl)-N-[(3R)-pyrrolidin-3-yl]pyrazin-2-amine] |  |  | 5.12 | ≥ 10000 |
| CCOc1ccc2ncn(-c3cncc(N[C@@H]4CCNC4)n3)c2c1 [Example 219, 6-(6-ethoxy-1H-benzimidazol-1-yl)-N-[(3R)-pyrrolidin-3-yl]pyrazin-2-amine] | 48.4 |  |  | 979 |
| c1cc2c(cc1OCC1CC1)ncn2-c1cncc(N[C@@H]2CCNC2)n1 [Example 221, 6-[5-(cyclopropylmethoxy)-1H-benzimidazol-1-yl]-N-[(3R)-pyrrolidin-3-yl]pyrazin-2-amine] |  |  | 3.34 | 370 |
| CC(C)Oc1ccc2c(c1)ncn2-c1cncc(N[C@@H]2CCNC2)n1 [Example 222, 6-[5-(propan-2-yloxy)-1H-benzimidazol-1-yl]-N-[(3R)-pyrrolidin-3-yl]pyrazin-2-amine] | 42.5 |  |  | ≥ 10000 |
